# Read-outs that look alike come from different tables or passages of the source.
# Tested on: SKBR-3 cell line (human breast cancer)
# Experiment: 2D-cytotoxicity assay of free payloads (Cell titer glow, 72 hours)
# Format: cell-based
# Procedure: Protocol: Day 1:5,000 cells/well were plated and incubated at 37° C. overnight, unless otherwise noted.
# Day 2: Payload/vehicle control dilutions were made in respective media and added to cells. Volume added: 50 μL to each well. Starting treatment concentration was 0.1 mM for free payloads/10% for vehicle control and then diluted 10-fold down for a total of 11 treatment dilutions. Each concentration was analyzed in triplicates. Media-only wells was used as a control to calculate percent viability.
# Day 5: Cell titer glow reagent (volume: 50 μL) was added to each well, the plate was shaken for 5 mins and the luminescence was recorded.
# Drug Treatment Time: 72 hours.
# Data Analysis: Percent viability was calculated by dividing the luminescence signal obtained for each treated well by the untreated well (media-only control) and multiplying by 100. Data was next transformed using X=Log (x) and then analyzed with nonlinear regression (curve fit), Dose Response inhibition−log (inhibitor) vs response (3 parameters) using PRISM software to determine the IC50 value.
# [1] = Homo sapiens, SK-BR-3, SKBR-3, 2000 cells/well, read-out: IC50
# [2] = Homo sapiens, SK-BR-3, 72 h, SKBR-3, 5,000 cells/well
# [3] = Homo sapiens, SK-BR-3, SKBR-3, 5,000 cells/well, read-out: IC50
# [4] = SKBR-3, 5,000 cells/well, read-out: IC50
compound,measurement,setting,value
CC[C@@]1(OC(=O)CCCN)C(=O)OCc2c1cc1n(c2=O)Cc2c-1nc1cc(F)c(C)c3c1c2CCC3 [Compound E-43],IC50,[1],32.5 nM
CC[C@@]1(O)C(=O)OCc2c1cc1n(c2=O)C(O)c2c-1nc1cc(F)c(C)c3c1c2CCC3 (some centres unmarked) [Compound E-19],IC50,[2],75.7 nM
C=CCC1c2c(nc3cc(F)c(C)c4c3c2CCC4)-c2cc3c(c(=O)n21)COC(=O)[C@]3(O)CC (some centres unmarked) [Compound E-21],IC50,[3],415 nM
C#CCOC1c2c(nc3cc(F)c(C)c4c3c2CCC4)-c2cc3c(c(=O)n21)COC(=O)[C@]3(O)CC (some centres unmarked) [Compound E-22],IC50,[3],76.3 nM
"CC[C@@]1(O)C(=O)OCc2c1cc1n(c2=O)Cc2c-1nc1cc(F)c(C)c3c1c2[C@H](OCNC(=O)CN)CC3 (single isomer, unassigned) [E-35a*]",IC50,[1],28.1 nM
"CC[C@@]1(O)C(=O)OCc2c1cc1n(c2=O)Cc2c-1nc1cc(F)c(C)c3c1c2[C@@H](OCNC(=O)CN)CC3 (single isomer, unassigned) [E-35b*]",IC50,[1],58.8 nM
"CC[C@@]1(O)C(=O)OCc2c1cc1n(c2=O)Cc2c-1nc1cc(F)c(C)c3c1c2[C@@H](NC(=O)CO)CC3 [Exatecan Glycolamide, reference compound]",IC50,[4],5.06 nM
CC[C@@]1(O)C(=O)OCc2c1cc1n(c2=O)Cc2c-1nc1cc(F)c(C)c3c1c2C(=NO)CC3 [Compound E-29],IC50,[2],15.5 nM
CC[C@@]1(O)C(=O)OCc2c1cc1n(c2=O)C(C)(C)c2c-1nc1cc(F)c(C)c3c1c2CCC3 [Compound E-25],IC50,[3],3040 nM
CC[C@@]1(O)C(=O)OCc2c1cc1n(c2=O)Cc2c-1nc1c(Cl)c(F)c(C)c3c1c2CCC3 [Compound E-38],IC50,[3],35 nM
CC[C@@]1(O)C(=O)OCc2c1cc1n(c2=O)Cc2c-1nc1cc(F)c(C)c3c1c2C(OCNC(=O)CN)CC3 (some centres unmarked) [Compound E-35],IC50,[2],7.68 nM
Exatecan Mesylate [reference compound],IC50,[4],2.45 nM
CC[C@@]1(O)C(=O)OCc2c1cc1n(c2=O)C2(CC=CC2)c2c-1nc1cc(F)c(C)c3c1c2CCC3 [Compound E-24],IC50,[3],517 nM
CC[C@@]1(O)C(=O)OCc2c1cc1n(c2=O)Cc2c-1nc1cc(F)c(C)c3c1c2C(O)CC3 (some centres unmarked) [Compound E-1],IC50,[3],3.27 nM
C=CCC1(CC=C)c2c(nc3cc(F)c(C)c4c3c2CCC4)-c2cc3c(c(=O)n21)COC(=O)[C@]3(O)CC [Compound E-23],IC50,[3],3580 nM
CC[C@@]1(O)C(=O)OCc2c1cc1n(c2=O)Cc2c-1nc1cc(F)c(C)c3c1c2CCC3 [Compound E-18],IC50,[2],1.1 nM
CC[C@@]1(O)C(=O)OCc2c1cc1n(c2=O)Cc2c-1nc1cc(F)c(C)c3c1c2C(OCNC(=O)CNC)CC3 (some centres unmarked) [Compound E-42],IC50,"Homo sapiens, SK-BR-3, 72 h, SKBR-3, 1000 cells/well",12 nM
CC[C@@]1(O)C(=O)OCc2c1cc1n(c2=O)Cc2c-1nc1cc(F)c(C)c3c1c2C(=O)CC3 [Compound E-2],IC50,"Homo sapiens, SK-BR-3, 72 h, SKBR-3, 5,000 cells/well, payload in ACN:Water",27.7 nM
same,IC50,"Homo sapiens, SK-BR-3, 72 h, SKBR-3, 5,000 cells/well, payload in DMSO",73.2 nM
CCC1(O)C(=O)OCc2c1cc1n(c2=O)Cc2c-1nc1cc(F)c(C)c3c1c2CCC3 (centres unmarked) [Compound E-10],IC50,[2],2.7 nM

# — patent US20260022127A1, “HEXACYCLIC TOPOISOMERASE INHIBITORS HAVING CYTOTOXIC ACTIVITY ON CANCER CELLS” (priority 2022, published 2026)
